Experimental data from patent publication US20210137953A1, “Inhibitors of Mcl-1 and Akt Binding, Pharmaceutical Compositions, and Uses in Treating Cancer” (Emory University, priority 2019, published 2021).
“Also recorded” adds a separate entry of the source.

Tests used:
[1] = system: human lung cancer cells; test: sulforhodamine B cytotoxicity screening; assay type: cell-based; conditions: sulforhodamine B assay; among the top 500 small molecules from docking
Description: The small molecules were ranked according to their energy scores. The top 500 small molecules based on predicted binding energies were selected for screening of cytotoxicity in human lung cancer cells by sulforhodamine B assay as described in Park et al. Novel small molecule inhibitors of Bcl-XL to treat lung cancer. Cancer Res 2013;73: 5485-96.

[2] = biological target: T1, Mcl-1/Akt complexes (Homo sapiens, UniProt P31749); test: Co-IP of Mcl-1/Akt interaction in H1299 cells; assay type: cell-based; conditions: increasing concentrations
T1 construct: treatment of H1299 cells with increasing concentrations of PH-687; endogenous in cells; host or cells: H1299
T1 sequence (P31749 whole entry, one chain of several): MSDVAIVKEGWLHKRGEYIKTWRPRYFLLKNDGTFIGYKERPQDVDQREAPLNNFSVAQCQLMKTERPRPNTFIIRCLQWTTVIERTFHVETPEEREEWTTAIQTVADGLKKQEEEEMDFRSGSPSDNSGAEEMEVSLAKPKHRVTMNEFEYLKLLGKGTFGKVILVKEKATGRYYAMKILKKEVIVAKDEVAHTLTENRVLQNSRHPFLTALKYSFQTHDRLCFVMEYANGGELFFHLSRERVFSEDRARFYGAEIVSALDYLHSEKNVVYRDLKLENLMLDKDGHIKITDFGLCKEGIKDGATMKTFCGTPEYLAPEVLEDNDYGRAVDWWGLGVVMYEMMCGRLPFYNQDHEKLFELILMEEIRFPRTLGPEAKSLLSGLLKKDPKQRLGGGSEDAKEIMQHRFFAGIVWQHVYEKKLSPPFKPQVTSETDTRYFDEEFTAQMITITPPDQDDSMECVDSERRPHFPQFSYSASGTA
Method: To evaluate the mechanism by which Mcl-1 regulates Akt, coimmunoprecipitation (co-IP) experiments using Mcl-1 or Akt antibody were performed in H1299 parental versus H1299 Mcl-1^−/^− cells. […] Because Akt antibody could pull-down Mcl-1 protein only in H1299 parental, but not in H1299 Mcl-1^−/^− cells, this indicates a potential direct interaction between Mcl-1 and Akt in human lung cancer cells. To further verify this interaction, similar co-IP experiments were carried out in a cell-free system using purified recombinant Mcl-1 and Akt proteins. Consistently, Mcl-1 also directly interacted with Akt in the cell-free system. To detect the intracellular localization(s) of Akt/Mcl-1 interaction, a Duolink™ proximity ligation assay (PLA) system was employed to detect Akt/Mcl-1 interaction in H1299 cells and H460 cells according to the manufacturer's instructions. Two primary antibodies raised in different species (i.e., Mcl-1 antibody from rabbit and Akt antibody from mouse) are used to detect two unique protein targets. […] PLA signals were detected by fluorescence microscopy as discrete spots. […]
To test whether PH-687 specifically binds to the PH domain in Akt, recombinant GST-tagged WT Akt, PH deletion Akt mutant (DPH), and PH domain-only proteins were generated and PH-687 compound/Akt protein binding were measured using a thermal shift assay. […]

[3] = system: NSCLC (H1299) xenografts; test: H1299 lung cancer xenografts in nude mice; assay type: in vivo
Method: Nu/Nu nude mice with H1299 lung cancer xenografts were treated with increasing doses of PH-687 for 4 weeks. Tumor volume was measured once every 4 days. After 28 days, mice were sacrificed and the tumors were removed, photographed, and analyzed.
(§1) To test the antitumor potency of PH-687 in vivo, nude mice with NSCLC (i.e., H1299) xenografts were treated with increasing doses (0, 30, 60, and 90 mg/kg/day) of PH-687 for 4 weeks.
(§2) Six-week-old male nude mice were purchased from Harlan and housed under pathogen-free conditions. H1299 cells were subcutaneously implanted into mouse flanks. Tumor bearing mice were randomly grouped and tumors were allowed to grow to an average volume of 100 mm3 before treatment. Mice were treated with PH-687 through intraperitoneal injection (i.p) at the indicated dose. During treatment, tumor volumes were measured by caliper once every 4 days.
Paraffin-embedded human lung tissue samples from 208 patients with NSCLC were obtained. Tissue microarray was constructed with replicate cores of tumor and adjacent normal lung. After deparaffinization, rehydration, inactivation of endogenous peroxidase, and antigen retrieval, IHC staining was performed. The following primary antibody dilutions were used: anti-Mcl-1 (1:300), anti-pAKT S473 (1:100), anti-pAKT T308 (1:100), anti-Ki67 (1:500), and anti-active caspase-3 (1:100). Ki67-positive cells and active caspase-3-positive cells in tumor tissues were scored. Percentage of positive cells was determined from three separate fields in each of three independent tumor samples. The semiquantitative evaluation of IHC staining of Mcl-1 and pAkt was carried out using an immunoscore based on both the percentage of stained cells and staining intensity.

[4] = system: GST-DPH (PH deletion Akt mutant); test: thermal shift assay, PH deletion Akt mutant; assay type: binding; conditions: GST-DPH protein, increasing concentrations
Method: (§3) To test whether PH-687 specifically binds to the PH domain in Akt, recombinant GST-tagged WT Akt, PH deletion Akt mutant (DPH), and PH domain-only proteins were generated and PH-687 compound/Akt protein binding were measured using a thermal shift assay. Thermal shift assay is a technique to study protein/small-molecule interactions that enhance protein thermal stability and increase melting temperatures as described in Jin et al. Glutamate dehydrogenase 1 signals through antioxidant glutathione peroxidase 1 to regulate redox homeostasis and tumor growth. Cancer Cell, 2015, 27:257-70. […] Because PH-687 can bind to the Mcl-1-binding site (i.e., PH domain) on Akt protein, the effect of PH-687 on Mcl-1/Akt interaction was tested.

[5] = biological target: T2, Akt/PDK1 (Homo sapiens, UniProt P31749); test: interaction of Akt with PDK1 in H1299 cells; assay type: cell-based
T2 construct: endogenous in cells; host or cells: H1299
T2 sequence (P31749 whole entry): as the sequence (P31749 whole entry, one chain of several) above
Method: (§4) PIP3 directly binds to the PH domain and induces a conformational change in Akt, which enables PDK1 or mTORC2 to access and phosphorylate Akt at T308 or S473. To test whether Mcl-1, similar to PIP3, may also affect the interactions between Akt and PDK1 or mTORC2, co-IP experiments using Akt antibody were performed in H1299 parental cells or H1299 Mcl-1^−/^− cells expressing WT Mcl-1, DPEST Mcl-1 mutant, or empty vector, followed by Western blot using PDK1 or mTORC2 antibody, respectively. Results reveal that knockout of Mcl-1 disrupted Akt/PDK1 and Akt/mTORC2 interactions, and expression of WT Mcl-1, but not PEST deletion mutant, restored Akt/PDK1 and Akt/mTORC2 interactions.
(§5) To test whether PH-687-mediated Mcl-1/Akt dissociation enhances interaction between the PH and KD domains, a mammalian two-hybrid system was employed to measure the PH/KD interaction in H1299 cells using Gal4BD-Akt KD, VP16AD-Akt PH, and pG5SEAP in the absence or presence of PH-687.

[6] = system: Akt phosphorylation; test: growth factor-induced Akt phosphorylation in H1299 cells; assay type: cell-based, human; conditions: 2 mmol/L, 1 hour, EGF 100 ng/mL, IGF 10 ng/mL or insulin 1 mg/mL
Method: To test whether Mcl-1 or PH-687 also affects Akt activation by growth factors such as EGF, IGF, or insulin, first, H1299 parental and H1299 Mcl-1^−/^− cells were treated with EGF (100 ng/mL), IGF (10 ng/mL), or insulin (1 mg/mL) for 1 hour, followed by analysis of Akt phosphorylation. […] Knockout of Mcl-1 blocked EGF, IGF, and insulin-induced Akt phosphorylation at S473 and T308. Second, H1299 cells were treated with EGF (100 ng/mL), IGF (10 ng/mL), or insulin (1 mg/mL) in the absence or presence of PH-687 (2 mmol/L) for 1 hour, followed by analysis of Akt phosphorylation. Results reveal that PH-687 inhibited EGF, IGF, and insulin-induced Akt phosphorylation at S473 and T308.

[7] = biological target: T3, GST-PH domain-only Akt protein (Homo sapiens, UniProt P31749); test: thermal shift assay, PH domain-only protein; assay type: binding; conditions: purified GST-PH-mutant (PH domain-only) protein, increasing concentrations
T3 construct: PH domain-only proteins were generated; made in house
T3 sequence (P31749 5-108 limits assumed): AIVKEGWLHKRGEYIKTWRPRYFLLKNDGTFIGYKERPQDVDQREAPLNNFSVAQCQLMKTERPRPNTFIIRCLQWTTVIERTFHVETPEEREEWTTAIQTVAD
Method: as §3

[8] = system: various human lung cancer cell lines (H1299, H157, H460); test: colony formation / growth in various human lung cancer cell lines; assay type: cell-based
[9] = biological target: T4, Akt/mTORC2 (Homo sapiens, UniProt P31749); test: interaction of Akt with mTORC2 in H1299 cells; assay type: cell-based
T4 construct: endogenous in cells; host or cells: H1299
T4 sequence (P31749 whole entry): as the sequence (P31749 whole entry, one chain of several) above
Method: as §4, §5

[10] = system: H1299 parental cells; test: colony formation assay, H1299 parental cells; assay type: cell-based, human; conditions: H1299 cells, 0, 0.1, 0.5, 1 mmol/L
Method: (§6) To further test whether PH-687 specifically functions through targeting Mcl-1/AKT signaling in lung cancer cells, H1299 parental cells, H1299 Mcl-1^−/^− cells and H1299 cells expressing Akt siRNA were treated with increasing concentrations of PH-687 (0, 0.1, 0.5, 1 mmol/L), followed by colony formation assay.

[11] = toxicity in xenograft-bearing mice (body weight, blood chemistry, blood counts); assay type: in vivo; conditions: 30-90 mg/kg/day
Method: as §1, §2

[12] = system: H1299 cells expressing Akt siRNA; test: colony formation assay, H1299 cells expressing Akt siRNA; assay type: cell-based, human; conditions: knockdown of Akt by Akt siRNA, vs H1299 parental; 0, 0.1, 0.5, 1 mmol/L
Method: as §6

[13] = system: H1299 Mcl-1−/− cells; test: colony formation assay, H1299 Mcl-1−/− cells; assay type: cell-based, human; conditions: knockout of Mcl-1 by CRISPR/cas9, vs H1299 parental; 0, 0.1, 0.5, 1 mmol/L
Method: as §6

[14] = system: Akt; test: Akt activity in human lung cancer cell lines; assay type: cell-based
[15] = biological target: T5, GST-tagged WT Akt (Homo sapiens, UniProt P31749); test: thermal shift assay, GST-WT Akt; assay type: binding; conditions: purified GST-WT Akt, increasing concentrations
T5 construct: made in house
T5 sequence (P31749 whole entry): as the sequence (P31749 whole entry, one chain of several) above
Method: as §3

[16] = system: Akt PH/KD interaction; test: mammalian two-hybrid system (SEAP), PH/KD interaction in H1299 cells; assay type: cell-based, human; conditions: H1299 cells, 0, 0.5, 1, 2 mmol/L, 24 hours
Description: Because Mcl-1 can directly interact with Akt at the PH domain, experiments were designed to test whether Mcl-1 affects the intramolecular PH domain/KD interaction. GST-tagged KD, GFP-tagged PH domain, and Flag-tagged WT Mcl-1 or DPEST Mcl-1 mutant were used for co-transfection and co-IP experiments. […] To further confirm these findings, a mammalian two-hybrid system was employed to measure the PH/KD interaction. Co-transfection of Gal4BD-Akt KD and VP16AD-Akt PH along with pG5SEAP in cells drives the expression of secreted alkaline phosphatase (SEAP) when KD/PH interaction occurs. To test the effect of Mcl-1 on KD/PH interaction, the two-hybrid H1299 Mcl-1^−/^− cells were co-transfected with WT Mcl-1 or DPEST mutant Mcl-1, followed by analysis of SEAP activity. […] Because the PEST domain is required for Mcl-1/Akt binding, it is proposed that Mcl-1 disruption of intramolecular PH domain/kinase domain interactions may occur through Mcl-1/Akt binding.
as §5

[17] = harvested tumor tissues after treatment

N=c1ccn2c(n1)OC1C(OP(=O)(O)O)C(CO)OC12 (stereo not shown) [PH-687, 2-(hydroxymethyl)-6-imino-2,3,3a,9a-tetrahydro-6H-furo[2′,3′:4,5]oxazolo[3,2-a]pyrimidin-3-yl dihydrogen phosphate]
activity against human lung cancer cells (cytotoxicity) [1]: most potent activity
dissociation of Mcl-1/Akt complexes [2]: dose-dependent dissociation of Mcl-1/Akt complexes
Ki67 level in tumor tissues (IHC) [3, 17]: decreased levels
apoptosis (active caspase-3) in tumor tissues (IHC) [3, 17]: increased apoptosis
pAkt (S473) level in tumor tissues (IHC) [3, 17]: decreased levels
pAkt (T308) level in tumor tissues (IHC) [3, 17]: decreased levels
tumor growth (tumor volume) ([3]; nude mice, 0, 30, 60, 90 mg/kg/day i.p., 4 weeks): suppressed tumor growth in a dose-dependent manner; also recorded: suppresses tumor growth
Tm (melting temperature) [4]: no significant increase in Tm
interaction of Akt with PDK1 [5]: dose dependent decreased interaction
EGF, IGF, and insulin-induced Akt phosphorylation at S473 [6]: inhibited
EGF, IGF, and insulin-induced Akt phosphorylation at T308 [6]: inhibited
Tm (melting temperature) [7]: Dose-dependent increases in Tm
cell growth [8]: growth inhibition
interaction of Akt with mTORC2 [9]: dose dependent decreased interaction
cell growth (colony formation) [10]: growth inhibition in a dose-dependent manner
increase in alanine aminotransferase [11]: no significant increase
increase in aspartate aminotransferase [11]: no significant increase
increase in blood urea nitrogen [11]: no significant increase
reduction in PLT [11]: no significant
reduction in RBC [11]: no significant
reduction in WBC [11]: no significant
reduction in hemoglobin [11]: no significant
weight loss [11]: no significant weight loss
inhibitory effect on cell growth (colony formation) [12]: reduced the inhibitory effect
inhibitory effect on cell growth (colony formation) [13]: reduced the inhibitory effect
Akt activity [14]: significantly reduced Akt activity
Tm (melting temperature) [15]: Dose-dependent increases in Tm
PH/KD interaction [16]: increased PH/KD interaction in a dose-dependent manner
